How the values were obtained:
[1] = Stability experiment (75% RH, 92.5% RH, 40° C., 60° C. and light for 10 days; XRPD pattern and purity); format: physicochemical; conditions: for stability (in words): 60° C. and light for 10 days
Method: X-ray powder diffraction instrument and test conditions involved in the present disclosure: the model of the X-ray diffraction instrument was Rigaku D/max-2200 Cu target; the operation method included a scanning speed of 10°/min and scanning step width of 0.01°.
High-performance liquid chromatography (HPLC) test conditions involved in the present disclosure: the model of the liquid chromatograph was Agilent 1260; the chromatographic column was Agilent Eclipse XDB C-18 250 mm*4.6 mm Sum; the detection wavelength was 280 nm; and the column temperature was 35° C.
The amorphous form of compound of formula I prepared in Preparation Example, the crystal form A of the compound of formula I prepared in Example 1, the crystal form B of the compound of formula I prepared in Example 7, and the crystal form C of the compound of formula I prepared in Example 11 were placed in 75% RH, 92.5% RH, 40° C., 60° C. and light for 10 days respectively, and the X-ray powder diffraction pattern and purity of each crystal form were measured.

Granularity experiment = format: physicochemical
Method: (§1) The amorphous form of compound of formula I prepared in Preparation Example, the crystal form A of the compound of formula I prepared in Example 1, the crystal form B of the compound of formula I prepared in Example 7, and the crystal form C of the compound of formula I prepared in Example 11 were measured for granularity, and the specific results are shown in the following table: […]

[2] = Flowability test (angle of repose); format: physicochemical
Method: as §1, with “angle of repose,” for “granularity,”

ERα = biological target: T1, ERα (Homo sapiens, UniProt P03372); conditions: as indicated in WO2017080338A1; cited from earlier work
T1 sequence (P03372 1-595): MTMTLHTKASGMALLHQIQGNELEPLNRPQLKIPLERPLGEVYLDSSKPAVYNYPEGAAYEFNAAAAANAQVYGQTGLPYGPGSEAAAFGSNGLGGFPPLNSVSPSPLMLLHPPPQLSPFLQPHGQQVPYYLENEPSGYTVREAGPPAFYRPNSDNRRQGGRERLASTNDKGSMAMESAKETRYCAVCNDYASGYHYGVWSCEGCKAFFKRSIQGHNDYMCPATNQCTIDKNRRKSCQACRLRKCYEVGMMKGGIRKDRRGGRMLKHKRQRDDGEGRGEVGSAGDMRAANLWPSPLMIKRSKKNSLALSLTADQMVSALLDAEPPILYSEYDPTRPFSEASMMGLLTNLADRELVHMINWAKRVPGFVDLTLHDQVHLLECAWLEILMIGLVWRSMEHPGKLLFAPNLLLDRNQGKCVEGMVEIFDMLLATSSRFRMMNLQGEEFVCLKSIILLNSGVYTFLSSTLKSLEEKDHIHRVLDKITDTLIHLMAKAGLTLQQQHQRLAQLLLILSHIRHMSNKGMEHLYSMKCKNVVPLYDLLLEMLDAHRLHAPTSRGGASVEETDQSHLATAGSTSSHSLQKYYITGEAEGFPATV

[3] = compared with crystal forms A, B and C

SMILES	Purity % ([1]; 0 day) [%]	Purity % ([1]; 40° C., 10 days) [%]	Purity % ([1]; 60° C., 10 days) [%]	Purity % ([1]; 75% RH, 10 days) [%]	Purity % ([1]; 92.5% RH, 10 days) [%]	Purity % ([1]; Light, 10 days) [%]	D50 (Granularity experiment; granularity) [μm]	granularity (Granularity experiment; granularity, second column under amorphous form) [μm]	angle of repose ([2]; measurement 1) [°]	angle of repose ([2]; measurement 2) [°]	angle of repose ([2]; measurement 3) [°]	stability (in words) ([1]; 75% RH, 92.5% RH, 40° C.)	D90 (Granularity experiment; granularity) [μm]	granularity (in words) (Granularity experiment; [3])	angle of repose (in words) [2, 3]	effect of down-regulating ERα (ERα)
C[C@@H]1Cc2c([nH]c3ccccc23)[C@@H](c2c(F)cc(/C=C/C(=O)O)cc2F)N1CC1(F)CC1 [amorphous form, (E)-3-(3,5-difluoro-4-((1R,3R)-2-((1-fluorocyclopropyl)methyl)-3-methyl-2,3,4,9-tetrahydro-1H-pyrido[3,4-b]indol-1-yl)phenyl)acrylic acid]	95.82	95.80	95.67	96.22	96.57	95.55	3.02	23.01	43.2	41.9	42.5			significantly smaller than that of the crystal forms A, B, and C	significantly larger than that of the crystal forms A, B and C	
C[C@@H]1Cc2c([nH]c3ccccc23)[C@@H](c2c(F)cc(/C=C/C(=O)O)cc2F)N1CC1(F)CC1 [compound of formula I, (E)-3-(3,5-difluoro-4-((1R,3R)-2-((1-fluorocyclopropyl)methyl)-3-methyl-2,3,4,9-tetrahydro-1H-pyrido[3,4-b]indol-1-yl)phenyl)acrylic acid]																good effect of down-regulating ERα
C[C@@H]1Cc2c([nH]c3ccccc23)[C@@H](c2c(F)cc(/C=C/C(=O)O)cc2F)N1CC1(F)CC1 [crystal form A, (E)-3-(3,5-difluoro-4-((1R,3R)-2-((1-fluorocyclopropyl)methyl)-3-methyl-2,3,4,9-tetrahydro-1H-pyrido[3,4-b]indol-1-yl)phenyl)acrylic acid]	99.33	99.27	99.22	99.31	99.34	99.27	16.37		30.6	29.6	30.5	good stability	61.86			

Further lines, with some results ahead:

Purity % ([1]; 0 day) [%]	Purity % ([1]; 40° C., 10 days) [%]	Purity % ([1]; 60° C., 10 days) [%]	Purity % ([1]; 75% RH, 10 days) [%]	Purity % ([1]; 92.5% RH, 10 days) [%]	Purity % ([1]; Light, 10 days) [%]	D50 (Granularity experiment; granularity) [μm]	granularity (Granularity experiment; granularity, second column under amorphous form) [μm]	angle of repose ([2]; measurement 1) [°]	angle of repose ([2]; measurement 2) [°]	angle of repose ([2]; measurement 3) [°]	stability (in words) ([1]; 75% RH, 92.5% RH, 40° C.)	D90 (Granularity experiment; granularity) [μm]	SMILES	granularity (in words) (Granularity experiment; [3])	angle of repose (in words) [2, 3]	effect of down-regulating ERα (ERα)
99.87	99.77	99.75	99.81	99.81	99.68	15.48		32.5	31.3	32.3	good stability	60.79	C[C@@H]1Cc2c([nH]c3ccccc23)[C@@H](c2c(F)cc(/C=C/C(=O)O)cc2F)N1CC1(F)CC1 [crystal form B, (E)-3-(3,5-difluoro-4-((1R,3R)-2-((1-fluorocyclopropyl)methyl)-3-methyl-2,3,4,9-tetrahydro-1H-pyrido[3,4-b]indol-1-yl)phenyl)acrylic acid]			
99.78	99.80	99.84	99.79	99.78	99.71	15.02		31.5	31.8	30.9	good stability	59.88	C[C@@H]1Cc2c([nH]c3ccccc23)[C@@H](c2c(F)cc(/C=C/C(=O)O)cc2F)N1CC1(F)CC1 [crystal form C, (E)-3-(3,5-difluoro-4-((1R,3R)-2-((1-fluorocyclopropyl)methyl)-3-methyl-2,3,4,9-tetrahydro-1H-pyrido[3,4-b]indol-1-yl)phenyl)acrylic acid]			

Reference: patent US12522599B2, “Crystal forms of acrylic acid derivatives, preparation method therefor and use thereof” (ZHEJIANG HISUN PHARMACEUTICAL CO., LTD., priority 2019, dated 2026)
